Experimental data published in paper PMC10342804, “Neuroprotective and Disease-Modifying Effects of the Triazinetrione ACD856, a Positive Allosteric Modulator of Trk-Receptors for the Treatment of Cognitive Dysfunction in Alzheimer’s Disease” (International Journal of Molecular Sciences, 2023).

Assays:
[1] = set-up: method as in PMID 34440640; conditions: s.c., doses 0.3 mg/kg up to 3 mg/kg; cited from earlier work
C57BL/6J mice = assay: Forced swim test; type: in vivo, mouse; conditions: ACD856 1 mg/kg s.c. five days; ketamine single dose 10 mg/kg seven days prior to swimming session
Protocol: Depression-like behavior was assessed in male C57BL/6J mice using a modified version of the FST, as described previously. This included a two-day protocol test, with pre-exposure to water 24 h prior to the test (day one of FST), which seems to be a more accurate and sensitive technique in detecting depression-like behavior in mice than the standard method of a single exposure (one day test). Animals were individually placed in a vertical glass cylinder (50 cm high, 20 cm in diameter, CMA) filled with tap water up to 35 cm (25 ± 0.5 °C). Two swimming sessions were conducted: a 10 min pre-test (day one) followed 24 h later (day two) by a 6 min test session. The total duration of immobility, as well as latency to the first immobility, were recorded during the 6 min test. After each swimming session, the mice were gently removed and placed in a home cage together with dry napkins. Immobility was defined as floating passively in an upright position in water with only small movements necessary to keep the head above the water’s surface. The floating time was considered an index of depression-like behavior. The glass cylinder was cleaned thoroughly between each animal.

[2] = tested on: ERK1/2 and Trk-receptors phosphorylation; assay: Western blot of pERK1/2 and phospho-Trk in cortical neurons stimulated with growth factors; type: cell-based, mouse; conditions: 10 ng/mL factor, 20 min
Protocol: (§1) Figure 2 Increased activation of TrkB and downstream signaling through ERKK1/2 MAPK phosphorylation by BDNF and ACD856. Levels of phosphorylated TrkB receptors were determined by ELISA in SH-SY5Y cells overexpressing the human TrkB receptor (a). Effect of 0 (open bars), 10 (light grey bars), or 30 ng BDNF/mL (dark grey bars) and time course on BDNF-induced TrkB tyrosine phosphorylation are depicted as the mean of one experiment performed in quadruplicates +/− SEM * p < 0.05. SH-SY5Y-TrkB cells were incubated with 30 ng BDNF/mL for 10 min in the absence (DMSO) or presence of increasing concentrations of ACD856 (b). […] Data shown are the mean value +/− SEM from three independent experiments where each experiment was performed using at least 5 technical repeats. The effect of different neurotrophic factors on the phosphorylation of ERK1/2 and Trk-receptors was investigated (c). Cortical neurons were stimulated with 10 ng/mL of the indicated factors, and the levels of pERK1/2 (upper panel), phospho-Trk (tyrosine 674/675) (mid panel), and beta-actin as a loading control (lower panel) were analyzed by Western blot. Primary cortical neurons were incubated with 300 nM ACD856 for the indicated time periods in the absence of exogenous BDNF (d). The levels of phosphorylated ERK1/2 were determined by immunocytochemistry, and the total count per well of pERK1/2-positive neurites was determined. Fluorescence image at ×10 magnification showing phospho-ERK1/2 detected with immunocytochemistry in cortical neurons (e). * p < 0.05, ** p < 0.01 compared to control group at one-way ANOVA with Dunnett’s multiple comparisons test. Data shown are the mean value of all replicates +/− SEM from three different experiments.
Phosphorylated ERK 1/2 (pERK1/2) levels were evaluated in mouse primary neurons between DIV10–15. Cells were seeded at (60 × 10^4 cells) in 6-well plates coated with poly-D-Lysine. The activation of the Trk signaling pathway was induced with 10 ng/mL ligand for 20 min. Cells were thereafter immediately lysed on ice, sonicated, and denatured at 95 °C for 10 min on a heating block. Proteins were separated on a Novex Bis-Tris 4–12% gel and transferred to a PVDF membrane using an iBlot instrument (Invitrogen). The membrane was blocked using 5% BSA in TBS-T followed by incubation with anti-phospho-p44/42 MAPK (ERK1/2) rabbit monoclonal antibody (Cell Signaling CS-4370) (dilution 1:1000) in TBS-T with 0.1% BSA for at least 60 min. […] After washing, a Western blot detection reagent (Forte, Millipore) was added, and immunoreactive proteins were detected by luminescence using C-DiGit Blot Scanner and quantified with Image Studio™ Software (version 5.2). […]

primary cortical neurons [3] = assay: Resazurin assay, energy-deprived primary cortical neurons; type: cell-based, mouse; conditions: 10 ng/mL, no glucose or pyruvate, vs untreated cells
Protocol: (§2) Metabolic activity was determined by measuring reduction in resazurin (a). […] Data shown are the means of all replicates +/− SEM from at least three different primary cultures. * p-value < 0.05, ** p-value < 0.01, *** p-value < 0.001, **** p-value < 0.0001 compared to control group at one-way ANOVA with Dunnett’s multiple comparisons test.
Cells were seeded at […] in 96-well plates and treated at DIV4–5 in Neurobasal-A media with 2% B27 and 2 mM glutamine (no glucose or pyruvate was present). Two hours after treatment, a 10% volume of resazurin ready-to-use solution was added to the cell culture media, and the plates were returned to the incubator for a further four hours. Resazurin reduction is directly proportional to metabolic function and was evaluated fluorometrically at 540 nm excitation and 580 nm emission wavelengths using a SpectraMax iD5 plate reader. Results were presented as a percentage change compared to the control group.

primary cortical neurons [4] = assay: Mitochondrial ToxGlo assay (ATP levels, cell membrane integrity), energy-deprived primary neurons; type: cell-based, mouse; conditions: for cell membrane integrity: glucose and pyruvate withdrawal; for ATP levels: neurotrophins, 6 h, no glucose or pyruvate
Protocol: as §2
Mitochondrial ToxGlo assay was used to evaluate the cell membrane integrity and the ATP levels of PCN cells. At DIV4–5, cells seeded at […] in 96-well plates were treated for six and three hours with increasing doses of neurotrophins and ACD856, respectively, in Neurobasal-A media containing 2% B27 and 2 mM glutamine. No glucose or pyruvate was present in the cell media to prevent non-mitochondrial ATP production from glycolysis. Then, bis-AAF-R110, a fluorogenic substrate that is exclusively cleaved by proteases released from membrane-compromised cells, was added, and the plate was incubated at 37 °C for 30 min. Fluorescence was measured at 485 nm (Ex)/530 nm (Em) using a SpectraMax iD5 plate reader. Next, the ATP detection reagent was added, and luminescence was measured after 5 min incubation to assess ATP levels in lysed cells.

human TrkB receptor = target: T1, human TrkB receptor (Homo sapiens, UniProt Q16620); assay: Phospho-TrkB ELISA in SH-SY5Y cells overexpressing TrkB; type: cell-based; conditions: 10 or 30 ng BDNF/mL, time course
T1 construct: host or cells: SH-SY5Y (human neuroblastoma) stably expressing TrkB
Protocol: as §1, with “The effect of different neurotrophic factors on the phosphorylation of ERK1/2 and Trk-receptors was investigated (c).” left out, “Primary cortical neurons were incubated with 300 nM ACD856 for the indicated time periods in the absence of exogenous BDNF (d).” left out, “Data shown are the mean value of all replicates +/− SEM from three different experiments.” left out

Row | Molecule | phosphorylation of ERK1/2 [2] | phosphorylation of Trk-receptors (pY674/675) [2] | metabolic activity (reduction of resazurin) (primary cortical neurons [3]) | cell membrane integrity (primary cortical neurons [4]) | ATP levels (primary cortical neurons [4]) | other results
1 | Cc1cc(-n2c(=O)[nH]c(=O)n(C)c2=O)ccc1Oc1ccc(S(=O)(=O)C(F)(F)F)cc1 [ACD855] | – | – | – | – | – | pro-cognitive effects in cognition models [1]: potent pro-cognitive effects
2 | CNC1(c2ccccc2Cl)CCCCC1=O (stereo not shown) [Ketamine, ketamine] | – | – | – | – | – | prolonged effect on immobility time in forced swim test (C57BL/6J mice): prolonged antidepressive-like effects
3 | BDNF: recombinant human brain-derived neurotrophic factor (PeproTech 450-02) | the most effective growth factors with respect to inducing phosphorylation of ERK1/2 | the only growth factors that induced phosphorylation of Trk-receptors | significantly higher fluorescence | improved cell membrane integrity | able to increase ATP levels | –
4 | NGF: recombinant human nerve growth factor (PeproTech 450-01) | – | – | significantly higher fluorescence | improved cell membrane integrity | able to increase ATP levels | –
5 | BDNF: recombinant human brain-derived neurotrophic factor (PeproTech 450-02) (protein, UniProt P23560 19-247, looked up) Neurotrophic factor BDNF …: APMKEANIRGQGGLAYPGVRTHGTLESVNGPKAGSRGLTSLADTFEHVIEELLDEDQKVRPNEENNKDADLYTSRVMLSSQVPLEPPLLFLLEEYKNYLDAANMSMRVRRHSDPARRGELSVCDSISEWVTAADKKTAVDMSGGTVTVLEKVPVSKGQLKQYFYETKCNPMGYTKEGCRGIDKRHWNSQCRTTQSYVRALTMDSKKRIGWRFIRIDTSCVCTLTIKRGR | – | – | – | – | – | BDNF-induced TrkB tyrosine phosphorylation (human TrkB receptor): in a dose- and time-dependent manner, increase TrkB phosphorylation
6 | NT3: neurotrophin-3, binds to TrkC (protein, UniProt P20783 139-257, looked up) Neurotrophin-3: YAEHKSHRGEYSVCDSESLWVTDKSSAIDIRGHQVTVLGEIKTGNSPVKQYFYETRCKEARPVKNGCRGIDDKHWNSQCKTSQTYVRALTSENNKLVGWRWIRIDTSCVCALSRKIGRT | the most effective growth factors with respect to inducing phosphorylation of ERK1/2 | the only growth factors that induced phosphorylation of Trk-receptors | – | – | – | –
